According to ChEMBL document CHEMBL1132052, “Solid-phase synthesis of benzisothiazolones as serine protease inhibitors” (Bioorg Med Chem Lett, 1999):

Molecular target: Tryptase (Homo sapiens, UniProt Q9BZJ3+Q15661+Q9NRR2)
Test: Compound was tested for inhibition of human mast cell tryptase
Assay type: protein assay

SMILES	IC50 [nM]
COc1ccc(CNC(=O)CCCC(=O)OCN2C(=O)c3ccccc3S2(=O)=O)cc1	430
O=C(CCCC(=O)OCN1C(=O)c2ccccc2S1(=O)=O)NCc1ccc(Cl)c(Cl)c1	230
